Measured values: the NIST ThermoML archive (doi:10.1016/j.fluid.2008.09.022)

Assay: relative permittivity at various frequencies (dimensionless)
Conditions: Liquid, Frequency=0.01 MHz, Parallel plate capacitor

CC(F)(F)F [1,1,1-trifluoroethane]
Conditions | relative permittivity
218.12 K, 2000 kPa | 16.968
218.13 K, 3000 kPa | 17.006
218.16 K, 4000 kPa | 17.043
218.17 K, 5000 kPa | 17.076
218.18 K, 11000 kPa | 17.303
218.19 K, 6000 kPa | 17.111
218.21 K, 7000 kPa | 17.147
218.22 K, 10000 kPa | 17.264
218.23 K, 8000 kPa | 17.184
218.23 K, 9000 kPa | 17.224
218.24 K, 12000 kPa | 17.326
218.43 K, 13000 kPa | 17.338
218.45 K, 14000 kPa | 17.37
218.48 K, 15000 kPa | 17.403
223.96 K, 15000 kPa | 16.732
223.97 K, 13000 kPa | 16.66
223.97 K, 14000 kPa | 16.696
223.98 K, 12000 kPa | 16.622
224 K, 2000 kPa | 16.227
224 K, 3000 kPa | 16.267
224 K, 4000 kPa | 16.308
224 K, 5000 kPa | 16.349
224 K, 6000 kPa | 16.389
224 K, 7000 kPa | 16.432
224 K, 8000 kPa | 16.486
224 K, 9000 kPa | 16.506
224 K, 10000 kPa | 16.547
224 K, 11000 kPa | 16.582
232.97 K, 14000 kPa | 15.659
232.97 K, 15000 kPa | 15.697
232.98 K, 13000 kPa | 15.622
232.99 K, 9000 kPa | 15.465
232.99 K, 10000 kPa | 15.503
232.99 K, 12000 kPa | 15.581
233 K, 6000 kPa | 15.343
233 K, 7000 kPa | 15.387
233 K, 8000 kPa | 15.424
233 K, 11000 kPa | 15.543
233.01 K, 2000 kPa | 15.164
233.01 K, 3000 kPa | 15.207
233.01 K, 4000 kPa | 15.253
233.01 K, 5000 kPa | 15.298
243.15 K, 14000 kPa | 14.59
243.15 K, 15000 kPa | 14.629
243.16 K, 2000 kPa | 14.061
243.16 K, 3000 kPa | 14.108
243.16 K, 4000 kPa | 14.158
243.16 K, 5000 kPa | 14.203
243.16 K, 6000 kPa | 14.254
243.16 K, 7000 kPa | 14.298
243.16 K, 9000 kPa | 14.386
243.16 K, 10000 kPa | 14.43
243.16 K, 11000 kPa | 14.469
243.16 K, 12000 kPa | 14.51
243.16 K, 13000 kPa | 14.552
243.17 K, 8000 kPa | 14.34
253.13 K, 2000 kPa | 13.05
253.13 K, 6000 kPa | 13.264
253.13 K, 8000 kPa | 13.362
253.13 K, 9000 kPa | 13.407
253.13 K, 15000 kPa | 13.669
253.14 K, 3000 kPa | 13.106
253.14 K, 4000 kPa | 13.16
253.14 K, 5000 kPa | 13.209
253.14 K, 7000 kPa | 13.311
253.14 K, 10000 kPa | 13.455
253.14 K, 11000 kPa | 13.5
253.14 K, 12000 kPa | 13.543
253.14 K, 14000 kPa | 13.628
253.15 K, 13000 kPa | 13.585
263.02 K, 2000 kPa | 12.145
263.02 K, 12000 kPa | 12.685
263.02 K, 13000 kPa | 12.733
263.03 K, 3000 kPa | 12.203
263.03 K, 4000 kPa | 12.264
263.03 K, 6000 kPa | 12.379
263.03 K, 7000 kPa | 12.431
263.03 K, 8000 kPa | 12.485
263.03 K, 10000 kPa | 12.586
263.03 K, 11000 kPa | 12.636
263.03 K, 14000 kPa | 12.777
263.03 K, 15000 kPa | 12.821
263.04 K, 5000 kPa | 12.319
263.04 K, 9000 kPa | 12.536
274.42 K, 2000 kPa | 11.141
274.42 K, 3000 kPa | 11.215
274.42 K, 4000 kPa | 11.284
274.43 K, 5000 kPa | 11.346
274.43 K, 6000 kPa | 11.411
274.43 K, 7000 kPa | 11.471
274.43 K, 9000 kPa | 11.588
274.43 K, 10000 kPa | 11.644
274.43 K, 12000 kPa | 11.749
274.44 K, 8000 kPa | 11.528
274.44 K, 11000 kPa | 11.696
274.44 K, 13000 kPa | 11.798
274.44 K, 14000 kPa | 11.846
274.44 K, 15000 kPa | 11.895
283.16 K, 2000 kPa | 10.568
283.16 K, 3000 kPa | 10.641
283.16 K, 4000 kPa | 10.72
283.16 K, 5000 kPa | 10.796
283.17 K, 6000 kPa | 10.867
283.17 K, 7000 kPa | 10.936
283.17 K, 8000 kPa | 11.002
283.17 K, 9000 kPa | 11.066
283.18 K, 10000 kPa | 11.125
283.18 K, 11000 kPa | 11.183
283.18 K, 12000 kPa | 11.239
283.19 K, 13000 kPa | 11.293
283.19 K, 14000 kPa | 11.346
283.2 K, 15000 kPa | 11.397
294.1 K, 2000 kPa | 9.617
294.1 K, 3000 kPa | 9.7189
294.11 K, 4000 kPa | 9.8137
294.11 K, 5000 kPa | 9.9019
294.11 K, 6000 kPa | 9.9864
294.11 K, 7000 kPa | 10.066
294.11 K, 9000 kPa | 10.213
294.11 K, 10000 kPa | 10.281
294.11 K, 11000 kPa | 10.347
294.11 K, 15000 kPa | 10.585
294.12 K, 8000 kPa | 10.141
294.12 K, 12000 kPa | 10.409
294.12 K, 13000 kPa | 10.469
294.12 K, 14000 kPa | 10.526
